Results reported in patent US8399712B2 (priority 2010, dated 2013).

Columns and labels:
[1] = Relative humidity stability, saturated salt solutions at ambient temperature, XRPD; assay type: physicochemical; details: for Dissociation by XRPD: 75, 94, or 98% RH after four weeks
From the text: Upon completion of the duration allowed, the samples were immediately analyzed by XRPD.

[2] = Slurrying in water, resulting solid form; assay type: physicochemical; details: for Behaviour upon slurrying in water: three days
hyperglycemic rats = details: cited from earlier work
[3] = literature; cited from earlier work
cancer cell lines = details: in vitro; cited from earlier work
[4] = literature (Lopez-Nicolas 2009); cited from earlier work
[5] = assay type: physicochemical; details: slurrying in water at ambient, after 5 minutes
[6] = Attempted intrinsic dissolution of cocrystal 3 in 900 mL water; assay type: physicochemical; details: 900 mL water at ambient conditions, after 30 minutes
Procedure: Intrinsic dissolution in 900 mL water at ambient conditions was also attempted. […] Therefore, a concentration vs. time and intrinsic dissolution rate value were unobtainable at these conditions.

Cn1c(=O)c2c(ncn2C)n(C)c1=O [caffeine, reference compound]
Results (form by XRPD) ([1]; 75% RH, 1 week): caffeine anhydrous
Results (form by XRPD) ([1]; 75% RH, 4 weeks): caffeine anhydrous
Results (form by XRPD) ([1]; 75% RH, 1 day): caffeine anhydrous
Results (form by XRPD) ([1]; 75% RH, 3 days): caffeine anhydrous
Conversion to hydrate ([1]; 75% RH, up to four weeks): does not display signs of conversion
Conversion to hydrate ([1]; 94% RH): between one and three days at 94% RH partial conversion
Results (form by XRPD) ([1]; 94% RH, 1 week (7 days)): caffeine hydrate
Results (form by XRPD) ([1]; 94% RH, 4 weeks): caffeine hydrate
Results (form by XRPD) ([1]; 94% RH, 1 day): caffeine anhydrous
Results (form by XRPD) ([1]; 94% RH, 3 days): caffeine anhydrous/caffeine hydrate
Conversion to hydrate ([1]; 98% RH): converts to caffeine hydrate in less than one day
Results (form by XRPD) ([1]; 98% RH, 1 week): caffeine hydrate
Results (form by XRPD) ([1]; 98% RH, 4 weeks): caffeine hydrate
Results (form by XRPD) ([1]; 98% RH, 1 day): caffeine hydrate
Results (form by XRPD) ([1]; 98% RH, 3 days): caffeine hydrate

COc1cc(/C=C/c2ccc(O)cc2)cc(OC)c1.Cn1c(=O)c2c(ncn2C)n(C)c1=O [cocrystal 1 (Form I), pterostilbene:caffeine]
Results (form after stress) ([2]; slurry, 2 days): cocrystal 1 (Form I), no caffeine hydrate
Behaviour upon slurrying in water [2]: precipitation of pterostilbene
Results (form by XRPD) ([1]; 75% RH, 1 week): cocrystal 1 (Form I), no caffeine hydrate
Results (form by XRPD) ([1]; 75% RH, 1 week, additional stress at 98% RH): cocrystal 1 (Form I), no caffeine hydrate
Results (form by XRPD) ([1]; 75% RH, 4 weeks): cocrystal 1 (Form I), no caffeine hydrate
Results (form by XRPD) ([1]; 75% RH, 1 day): cocrystal 1 (Form I), no caffeine hydrate
Results (form by XRPD) ([1]; 75% RH, 1 day, additional stress at 98% RH): cocrystal 1 (Form I), no caffeine hydrate
Results (form by XRPD) ([1]; 75% RH, 3 days): cocrystal 1 (Form I), no caffeine hydrate
Results (form by XRPD) ([1]; 94% RH, 1 week (7 days)): cocrystal 1 (Form I), no caffeine hydrate
Results (form by XRPD) ([1]; 94% RH, 4 weeks): cocrystal 1 (Form I), no caffeine hydrate
Results (form by XRPD) ([1]; 94% RH, 1 day): cocrystal 1 (Form I), no caffeine hydrate
Results (form by XRPD) ([1]; 94% RH, 3 days): cocrystal 1 (Form I), no caffeine hydrate
Results (form by XRPD) ([1]; 94% RH, 7 days, additional stress at 98% RH, 4 weeks): cocrystal 1 (Form I), no caffeine hydrate

COc1cc(/C=C/c2ccc(O)cc2)cc(OC)c1.Cn1c(=O)c2c(ncn2C)n(C)c1=O [cocrystal 1, pterostilbene:caffeine]
Dissociation by XRPD [1]: no dissociation

CN(C)C(=N)N=C(N)N [metformin]
Decrease of plasma glucose levels (hyperglycemic rats): 48%

COc1cc(/C=C/c2ccc(O)cc2)cc(OC)c1 [pterostilbene, trans-3,5-dimethoxy-4′-hydroxystilbene]
Bioavailability [3]: poor bioavailability
Cytotoxic activity against cancer cell lines (cancer cell lines): demonstrated cytotoxic activity
Solubility in water [4]: poor solubility in water

pterostilbene:carbamazepine [cocrystal 2]
Behaviour upon slurrying in water [2]: stable
Results (form by XRPD) ([1]; 75% RH, 1 week): cocrystal 2, no carbamazepine dihydrate
Results (form by XRPD) ([1]; 75% RH, 4 weeks): cocrystal 2, no carbamazepine dihydrate
Results (form by XRPD) ([1]; 75% RH, 1 day): cocrystal 2, no carbamazepine dihydrate
Results (form by XRPD) ([1]; 75% RH, 3 days): cocrystal 2, no carbamazepine dihydrate
Results (form by XRPD) ([1]; 94% RH, 1 week (7 days)): cocrystal 2, no carbamazepine dihydrate
Results (form by XRPD) ([1]; 94% RH, 4 weeks): cocrystal 2, no carbamazepine dihydrate
Results (form by XRPD) ([1]; 94% RH, 1 day): cocrystal 2, no carbamazepine dihydrate
Results (form by XRPD) ([1]; 94% RH, 3 days): cocrystal 2, no carbamazepine dihydrate
Results (form by XRPD) ([1]; 98% RH, 1 week): cocrystal 2, no carbamazepine dihydrate
Results (form by XRPD) ([1]; 98% RH, 4 weeks): cocrystal 2, no carbamazepine dihydrate
Results (form by XRPD) ([1]; 98% RH, 1 day): cocrystal 2, no carbamazepine dihydrate
Results (form by XRPD) ([1]; 98% RH, 3 days): cocrystal 2, no carbamazepine dihydrate

pterostilbene:glutaric acid [cocrystal 3]
XRPD result of attempted powder dissolution [5]: crystalline pterostilbene
XRPD result of attempted intrinsic dissolution [6]: crystalline pterostilbene
Dissociation by XRPD [1]: no dissociation
